Laboratory results as given in PubChem BioAssay (NCI).
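How tested: cells in 96-well plates exposed to compound for 48 hours at five concentrations. At the GI50, growth is halved. At the TGI there is no net growth.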

How the values were obtained:
Assay in all cases: DTP human tumour cell line panel, 48 h
COLO 205 colon = test system: COLO 205 colon
MCF7 breast = test system: MCF7 breast
NCI/ADR-RES ovarian = test system: NCI/ADR-RES ovarian
MOLT-4 leukemia = test system: MOLT-4 leukemia
CAKI-1 renal = test system: CAKI-1 renal
SW-620 colon = test system: SW-620 colon
ACHN renal = test system: ACHN renal
OVCAR-5 ovarian = test system: OVCAR-5 ovarian
U251 CNS = test system: U251 CNS
SK-MEL-5 melanoma = test system: SK-MEL-5 melanoma
NCI-H226 lung = test system: NCI-H226 lung
HT29 colon = test system: HT29 colon
SK-MEL-2 melanoma = test system: SK-MEL-2 melanoma
PC-3 prostate = test system: PC-3 prostate
HCT-116 colon = test system: HCT-116 colon
NCI-H460 lung = test system: NCI-H460 lung
HL-60(TB) leukemia = test system: HL-60(TB) leukemia
NCI-H522 lung = test system: NCI-H522 lung
HCC-2998 colon = test system: HCC-2998 colon
SK-OV-3 ovarian = test system: SK-OV-3 ovarian
TK-10 renal = test system: TK-10 renal
T-47D breast = test system: T-47D breast
MALME-3M melanoma = test system: MALME-3M melanoma
KM12 colon = test system: KM12 colon
IGROV1 ovarian = test system: IGROV1 ovarian
OVCAR-4 ovarian = test system: OVCAR-4 ovarian
HCT-15 colon = test system: HCT-15 colon
OVCAR-3 ovarian = test system: OVCAR-3 ovarian
BT-549 breast = test system: BT-549 breast

O=C1/C(=C/c2ccc(Cl)cc2)CN(Cc2cn(CCNc3ccnc4cc(Cl)ccc34)nn2)C/C1=C\c1ccc(Cl)cc1
GI50 (COLO 205 colon): 354 nM | TGI (COLO 205 colon): 1070 nM | GI50 (MCF7 breast): 376 nM | TGI (MCF7 breast): 1370 nM | GI50 (NCI/ADR-RES ovarian): 406 nM | TGI (NCI/ADR-RES ovarian): 2240 nM | GI50 (MOLT-4 leukemia): 499 nM | TGI (MOLT-4 leukemia): > 100000 nM | GI50 (CAKI-1 renal): 346 nM | TGI (CAKI-1 renal): 1570 nM | GI50 (SW-620 colon): 275 nM | TGI (SW-620 colon): 830 nM | GI50 (ACHN renal): 391 nM | TGI (ACHN renal): 1210 nM | GI50 (OVCAR-5 ovarian): 612 nM | TGI (OVCAR-5 ovarian): 1620 nM | GI50 (U251 CNS): 185 nM | TGI (U251 CNS): 391 nM | GI50 (SK-MEL-5 melanoma): 807 nM | TGI (SK-MEL-5 melanoma): 2080 nM | GI50 (NCI-H226 lung): 840 nM | TGI (NCI-H226 lung): 2690 nM | GI50 (HT29 colon): 231 nM | TGI (HT29 colon): 489 nM | GI50 (SK-MEL-2 melanoma): 1880 nM | TGI (SK-MEL-2 melanoma): 3400 nM | GI50 (PC-3 prostate): 260 nM | TGI (PC-3 prostate): 776 nM | GI50 (HCT-116 colon): 203 nM | TGI (HCT-116 colon): 436 nM | GI50 (NCI-H460 lung): 247 nM | TGI (NCI-H460 lung): 602 nM | GI50 (HL-60(TB) leukemia): 332 nM | TGI (HL-60(TB) leukemia): 1100 nM | GI50 (NCI-H522 lung): 520 nM | TGI (NCI-H522 lung): 1190 nM | GI50 (HCC-2998 colon): 246 nM | TGI (HCC-2998 colon): 563 nM | GI50 (SK-OV-3 ovarian): 1030 nM | TGI (SK-OV-3 ovarian): 2380 nM | GI50 (TK-10 renal): 483 nM | TGI (TK-10 renal): 1600 nM | GI50 (T-47D breast): 946 nM | TGI (T-47D breast): 3620 nM | GI50 (MALME-3M melanoma): 1530 nM | TGI (MALME-3M melanoma): 3140 nM | GI50 (KM12 colon): 220 nM | TGI (KM12 colon): 496 nM | GI50 (IGROV1 ovarian): 276 nM | TGI (IGROV1 ovarian): 732 nM | GI50 (OVCAR-4 ovarian): 353 nM | TGI (OVCAR-4 ovarian): 1810 nM | GI50 (HCT-15 colon): 308 nM | TGI (HCT-15 colon): 1060 nM | GI50 (OVCAR-3 ovarian): 311 nM | TGI (OVCAR-3 ovarian): 915 nM | GI50 (BT-549 breast): 488 nM
